# Reference: US11231416B2, “Virus-like particle (VLP) based small molecule-protein interaction trap” (VIB VZW, priority 2015, dated 2022)
# Assays:
# MFI2 = target: T1, MFI2 (Homo sapiens, UniProt P08582); assay: Viral trapping in VLPs, MS analysis; format: binding; details: all proteins (incl. low confidence identifications)
# T1 construct: endogenous in cells; host or cells: HEK293T
# NQO2 = target: T2, NQO2 (Homo sapiens, UniProt P16083); assay: Viral trapping in VLPs, MS analysis; format: binding
# T2 construct: endogenous in cells; host or cells: HEK293T
# YIPF5 = target: T3, YIPF5 (Homo sapiens, UniProt Q969M3); assay: Viral trapping in VLPs, MS analysis; format: binding; details: all proteins (incl. low confidence identifications)
# T3 construct: endogenous in cells; host or cells: HEK293T
# NT5C = target: T4, NT5C (Homo sapiens, UniProt Q8TCD5); assay: Viral trapping in VLPs, MS analysis; format: binding; details: all proteins (incl. low confidence identifications)
# T4 construct: endogenous in cells; host or cells: HEK293T
# LMAN1 = target: T5, LMAN1 (Homo sapiens, UniProt P49257); assay: Viral trapping in VLPs, MS analysis; format: binding; details: all proteins (incl. low confidence identifications)
# T5 construct: endogenous in cells; host or cells: HEK293T
# TMEM9 = target: T6, TMEM9 (Homo sapiens, UniProt Q9P0T7); assay: Viral trapping in VLPs, MS analysis; format: binding; details: all proteins (incl. low confidence identifications)
# T6 construct: endogenous in cells; host or cells: HEK293T
# GAK = target: T7, GAK (Homo sapiens, UniProt O14976); assay: Viral trapping in VLPs, MS analysis; format: binding; details: all proteins (incl. low confidence identifications)
# T7 construct: endogenous in cells; host or cells: HEK293T
# DYNC2H1 = target: T8, DYNC2H1 (Homo sapiens, UniProt Q8NCM8); assay: Viral trapping in VLPs, MS analysis; format: binding; details: all proteins (incl. low confidence identifications)
# T8 construct: endogenous in cells; host or cells: HEK293T
# PPM1L = target: T9, PPM1L (Homo sapiens, UniProt Q5SGD2); assay: Viral trapping in VLPs, MS analysis; format: binding; details: all proteins (incl. low confidence identifications)
# T9 construct: endogenous in cells; host or cells: HEK293T
# RPS6KA1 = target: T10, RPS6KA1 (Homo sapiens, UniProt Q15418); assay: Viral trapping in VLPs, MS analysis; format: binding; details: all proteins (incl. low confidence identifications)
# T10 construct: endogenous in cells; host or cells: HEK293T
# GEMIN5 = target: T11, GEMIN5 (Homo sapiens, UniProt Q8TEQ6); assay: Viral trapping in VLPs, MS analysis; format: binding
# T11 construct: endogenous in cells; host or cells: HEK293T
# IGF1R = target: T12, IGF1R (Homo sapiens, UniProt P08069); assay: Viral trapping in VLPs, MS analysis; format: binding
# T12 construct: endogenous in cells; host or cells: HEK293T
# MST1R = target: T13, MST1R (Homo sapiens, UniProt Q04912); assay: Viral trapping in VLPs, MS analysis; format: binding; details: all proteins (incl. low confidence identifications)
# T13 construct: endogenous in cells; host or cells: HEK293T
# CAMKV = target: T14, CAMKV (Homo sapiens, UniProt Q8NCB2); assay: Viral trapping in VLPs, MS analysis; format: binding; details: all proteins (incl. low confidence identifications)
# T14 construct: endogenous in cells; host or cells: HEK293T
# USP7 = target: T15, USP7 (Homo sapiens, UniProt Q93009); assay: Viral trapping in VLPs, MS analysis; format: binding; details: all proteins (incl. low confidence identifications)
# T15 construct: endogenous in cells; host or cells: HEK293T
# FKBP3 = target: T16, FKBP3 (Homo sapiens, UniProt Q00688); assay: Viral trapping in VLPs, MS analysis; format: binding; details: all proteins (incl. low confidence identifications)
# T16 construct: endogenous in cells; host or cells: HEK293T
# MBTPS1 = target: T17, MBTPS1 (Homo sapiens, UniProt Q14703); assay: Viral trapping in VLPs, MS analysis; format: binding; details: all proteins (incl. low confidence identifications)
# T17 construct: endogenous in cells; host or cells: HEK293T
# MYO1D = target: T18, MYO1D (Homo sapiens, UniProt O94832); assay: Viral trapping in VLPs, MS analysis; format: binding; details: all proteins (incl. low confidence identifications)
# T18 construct: endogenous in cells; host or cells: HEK293T
# BZW1 = target: T19, BZW1 (Homo sapiens, UniProt Q7L1Q6); assay: Viral trapping in VLPs, MS analysis; format: binding; details: all proteins (incl. low confidence identifications)
# T19 construct: endogenous in cells; host or cells: HEK293T
# TMEM30A = target: T20, TMEM30A (Homo sapiens, UniProt Q9NV96); assay: Viral trapping in VLPs, MS analysis; format: binding; details: all proteins (incl. low confidence identifications)
# T20 construct: endogenous in cells; host or cells: HEK293T
# CTNNA2 = target: T21, CTNNA2 (Homo sapiens, UniProt P26232); assay: Viral trapping in VLPs, MS analysis; format: binding; details: all proteins (incl. low confidence identifications)
# T21 construct: endogenous in cells; host or cells: HEK293T
# INSR = target: T22, INSR (Homo sapiens, UniProt P06213); assay: Viral trapping in VLPs, MS analysis; format: binding
# T22 construct: endogenous in cells; host or cells: HEK293T
# RCL = target: T23, RCL (Homo sapiens, UniProt O43598); assay: Viral trapping in VLPs, MS analysis; format: binding
# T23 construct: endogenous in cells; host or cells: HEK293T
# TMX1 = target: T24, TMX1 (Homo sapiens, UniProt Q9H3N1); assay: Viral trapping in VLPs, MS analysis; format: binding; details: all proteins (incl. low confidence identifications)
# T24 construct: endogenous in cells; host or cells: HEK293T
# ZNF827 = target: T25, ZNF827 (Homo sapiens, UniProt Q17R98); assay: Viral trapping in VLPs, MS analysis; format: binding; details: all proteins (incl. low confidence identifications)
# T25 construct: endogenous in cells; host or cells: HEK293T
# HTRA3 = details: all proteins (incl. low confidence identifications)
# NEK2 = target: T26, NEK2 (Homo sapiens, UniProt P51955); assay: Viral trapping in VLPs, MS analysis; format: binding; details: all proteins (incl. low confidence identifications)
# T26 construct: endogenous in cells; host or cells: HEK293T
# APMAP = target: T27, APMAP (Homo sapiens, UniProt Q9HDC9); assay: Viral trapping in VLPs, MS analysis; format: binding; details: all proteins (incl. low confidence identifications)
# T27 construct: endogenous in cells; host or cells: HEK293T
# [1] = all proteins (incl. low confidence identifications)
# [2] = proteins identified with >1 peptide (high confidence)
# T2 sequence (P16083 whole entry): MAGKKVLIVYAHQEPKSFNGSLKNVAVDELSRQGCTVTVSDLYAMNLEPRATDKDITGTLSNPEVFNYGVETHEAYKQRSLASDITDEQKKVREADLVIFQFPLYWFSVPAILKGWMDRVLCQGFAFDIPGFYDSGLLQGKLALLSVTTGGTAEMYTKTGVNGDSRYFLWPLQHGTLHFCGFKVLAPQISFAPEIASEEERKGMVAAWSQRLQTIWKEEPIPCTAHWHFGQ
# T22 sequence (P06213 28-1382): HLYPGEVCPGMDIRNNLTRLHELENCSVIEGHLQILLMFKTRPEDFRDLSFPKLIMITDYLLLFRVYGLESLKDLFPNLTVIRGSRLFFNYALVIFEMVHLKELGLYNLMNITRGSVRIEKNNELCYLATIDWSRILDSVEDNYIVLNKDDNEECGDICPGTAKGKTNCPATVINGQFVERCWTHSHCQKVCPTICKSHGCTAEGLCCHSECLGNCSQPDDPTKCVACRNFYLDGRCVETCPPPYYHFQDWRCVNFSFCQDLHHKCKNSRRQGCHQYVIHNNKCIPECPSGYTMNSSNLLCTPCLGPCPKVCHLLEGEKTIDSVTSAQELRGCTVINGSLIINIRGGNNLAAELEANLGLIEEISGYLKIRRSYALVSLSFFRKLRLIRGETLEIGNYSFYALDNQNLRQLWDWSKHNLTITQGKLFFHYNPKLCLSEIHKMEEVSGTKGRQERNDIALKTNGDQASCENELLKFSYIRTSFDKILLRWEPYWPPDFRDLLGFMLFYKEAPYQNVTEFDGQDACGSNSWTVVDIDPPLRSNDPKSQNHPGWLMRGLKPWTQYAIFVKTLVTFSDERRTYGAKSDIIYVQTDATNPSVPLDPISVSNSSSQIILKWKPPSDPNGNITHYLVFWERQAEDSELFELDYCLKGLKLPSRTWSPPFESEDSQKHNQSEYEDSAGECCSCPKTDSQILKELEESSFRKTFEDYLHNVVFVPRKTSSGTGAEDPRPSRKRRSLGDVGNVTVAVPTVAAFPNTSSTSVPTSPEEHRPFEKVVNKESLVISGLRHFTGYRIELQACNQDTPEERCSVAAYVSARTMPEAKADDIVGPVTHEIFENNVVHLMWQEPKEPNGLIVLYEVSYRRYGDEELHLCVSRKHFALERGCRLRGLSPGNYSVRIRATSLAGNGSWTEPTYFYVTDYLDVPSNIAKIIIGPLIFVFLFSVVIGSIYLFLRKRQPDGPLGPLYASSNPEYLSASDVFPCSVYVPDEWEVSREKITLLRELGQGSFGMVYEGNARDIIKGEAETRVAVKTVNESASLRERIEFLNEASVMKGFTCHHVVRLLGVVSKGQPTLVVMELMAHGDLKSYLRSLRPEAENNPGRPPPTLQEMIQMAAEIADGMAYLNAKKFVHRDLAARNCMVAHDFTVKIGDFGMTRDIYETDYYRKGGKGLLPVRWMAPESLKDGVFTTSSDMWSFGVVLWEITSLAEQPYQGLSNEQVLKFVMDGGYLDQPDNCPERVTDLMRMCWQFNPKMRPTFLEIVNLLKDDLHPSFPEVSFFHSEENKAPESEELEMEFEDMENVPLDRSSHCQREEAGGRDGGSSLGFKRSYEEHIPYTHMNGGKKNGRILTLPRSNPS
# T12 sequence (P08069 31-1367): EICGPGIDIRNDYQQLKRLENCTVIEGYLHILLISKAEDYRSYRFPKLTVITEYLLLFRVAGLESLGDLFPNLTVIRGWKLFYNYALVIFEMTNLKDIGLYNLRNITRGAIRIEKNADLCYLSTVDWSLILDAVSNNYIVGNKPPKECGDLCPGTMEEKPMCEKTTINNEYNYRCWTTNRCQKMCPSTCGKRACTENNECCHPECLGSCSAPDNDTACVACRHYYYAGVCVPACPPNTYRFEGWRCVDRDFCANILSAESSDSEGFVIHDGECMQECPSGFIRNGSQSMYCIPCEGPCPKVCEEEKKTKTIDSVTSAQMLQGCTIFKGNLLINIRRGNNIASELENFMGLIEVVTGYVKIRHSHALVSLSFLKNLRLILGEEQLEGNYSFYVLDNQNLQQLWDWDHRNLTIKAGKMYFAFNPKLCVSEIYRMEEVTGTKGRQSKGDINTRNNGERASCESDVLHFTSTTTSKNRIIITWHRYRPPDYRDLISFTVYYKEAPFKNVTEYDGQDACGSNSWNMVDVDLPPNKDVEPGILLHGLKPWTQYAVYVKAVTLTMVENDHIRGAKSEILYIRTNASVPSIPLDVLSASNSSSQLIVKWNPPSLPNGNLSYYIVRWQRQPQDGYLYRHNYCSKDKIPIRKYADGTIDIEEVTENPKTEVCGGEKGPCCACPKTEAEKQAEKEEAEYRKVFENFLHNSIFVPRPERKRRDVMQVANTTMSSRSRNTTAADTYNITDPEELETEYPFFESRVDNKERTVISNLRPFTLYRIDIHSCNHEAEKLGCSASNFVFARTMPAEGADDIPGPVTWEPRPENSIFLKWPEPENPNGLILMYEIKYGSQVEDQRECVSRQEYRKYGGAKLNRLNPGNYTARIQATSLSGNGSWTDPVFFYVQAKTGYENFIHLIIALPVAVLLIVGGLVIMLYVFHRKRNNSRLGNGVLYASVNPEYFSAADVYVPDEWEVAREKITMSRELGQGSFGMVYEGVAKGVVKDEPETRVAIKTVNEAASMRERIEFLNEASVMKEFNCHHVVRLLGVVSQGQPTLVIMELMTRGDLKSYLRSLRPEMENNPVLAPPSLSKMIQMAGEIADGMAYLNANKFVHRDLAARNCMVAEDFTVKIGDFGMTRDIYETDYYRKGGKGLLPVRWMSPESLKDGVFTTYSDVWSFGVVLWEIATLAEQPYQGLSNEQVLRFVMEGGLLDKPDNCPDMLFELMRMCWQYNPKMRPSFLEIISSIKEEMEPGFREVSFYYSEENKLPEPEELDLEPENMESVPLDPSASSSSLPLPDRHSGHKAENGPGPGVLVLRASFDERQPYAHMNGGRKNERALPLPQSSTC
# T11 sequence (Q8TEQ6 whole entry): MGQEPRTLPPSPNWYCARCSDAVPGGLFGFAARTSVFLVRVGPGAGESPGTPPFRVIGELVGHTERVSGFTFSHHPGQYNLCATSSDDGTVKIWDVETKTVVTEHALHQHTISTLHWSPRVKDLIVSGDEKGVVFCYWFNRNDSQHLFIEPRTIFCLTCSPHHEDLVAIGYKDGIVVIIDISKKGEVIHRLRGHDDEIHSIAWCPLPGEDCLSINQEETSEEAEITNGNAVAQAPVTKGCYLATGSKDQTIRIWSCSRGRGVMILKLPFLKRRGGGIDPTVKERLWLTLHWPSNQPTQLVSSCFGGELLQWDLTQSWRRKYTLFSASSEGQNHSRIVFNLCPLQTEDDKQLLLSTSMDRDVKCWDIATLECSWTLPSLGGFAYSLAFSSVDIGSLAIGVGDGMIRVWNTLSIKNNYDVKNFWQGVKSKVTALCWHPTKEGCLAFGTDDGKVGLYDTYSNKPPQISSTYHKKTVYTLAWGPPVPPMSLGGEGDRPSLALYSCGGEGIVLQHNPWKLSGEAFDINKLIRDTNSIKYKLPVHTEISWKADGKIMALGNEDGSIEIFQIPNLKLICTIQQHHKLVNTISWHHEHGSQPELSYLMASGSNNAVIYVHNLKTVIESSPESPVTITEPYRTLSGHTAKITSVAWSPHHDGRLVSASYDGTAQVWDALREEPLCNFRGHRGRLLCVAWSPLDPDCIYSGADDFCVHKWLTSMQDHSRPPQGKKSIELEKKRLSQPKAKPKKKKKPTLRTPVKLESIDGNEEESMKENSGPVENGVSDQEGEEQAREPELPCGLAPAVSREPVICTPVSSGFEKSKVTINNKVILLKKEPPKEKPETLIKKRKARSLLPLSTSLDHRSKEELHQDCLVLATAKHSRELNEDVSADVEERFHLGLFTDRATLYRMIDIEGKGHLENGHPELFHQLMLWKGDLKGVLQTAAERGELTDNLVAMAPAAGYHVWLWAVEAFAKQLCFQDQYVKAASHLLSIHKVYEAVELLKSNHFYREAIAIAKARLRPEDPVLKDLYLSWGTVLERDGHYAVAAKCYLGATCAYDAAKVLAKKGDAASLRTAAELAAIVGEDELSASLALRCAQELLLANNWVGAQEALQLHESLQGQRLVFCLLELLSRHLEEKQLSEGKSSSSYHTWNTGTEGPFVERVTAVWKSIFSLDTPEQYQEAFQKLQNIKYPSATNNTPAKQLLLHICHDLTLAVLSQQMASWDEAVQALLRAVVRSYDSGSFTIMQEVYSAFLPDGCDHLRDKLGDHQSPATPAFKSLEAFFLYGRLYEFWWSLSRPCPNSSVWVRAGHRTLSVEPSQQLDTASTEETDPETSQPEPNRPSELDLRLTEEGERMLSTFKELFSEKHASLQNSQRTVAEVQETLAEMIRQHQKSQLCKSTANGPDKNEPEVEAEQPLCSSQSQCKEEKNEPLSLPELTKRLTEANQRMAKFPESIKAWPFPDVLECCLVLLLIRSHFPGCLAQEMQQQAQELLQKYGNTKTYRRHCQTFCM
# T23 sequence (O43598 whole entry): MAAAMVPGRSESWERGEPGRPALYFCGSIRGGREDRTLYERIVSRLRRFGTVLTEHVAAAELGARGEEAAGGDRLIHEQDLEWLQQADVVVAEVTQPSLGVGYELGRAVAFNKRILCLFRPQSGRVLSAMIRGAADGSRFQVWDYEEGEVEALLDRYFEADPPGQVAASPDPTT
# T19 sequence (Q7L1Q6 whole entry): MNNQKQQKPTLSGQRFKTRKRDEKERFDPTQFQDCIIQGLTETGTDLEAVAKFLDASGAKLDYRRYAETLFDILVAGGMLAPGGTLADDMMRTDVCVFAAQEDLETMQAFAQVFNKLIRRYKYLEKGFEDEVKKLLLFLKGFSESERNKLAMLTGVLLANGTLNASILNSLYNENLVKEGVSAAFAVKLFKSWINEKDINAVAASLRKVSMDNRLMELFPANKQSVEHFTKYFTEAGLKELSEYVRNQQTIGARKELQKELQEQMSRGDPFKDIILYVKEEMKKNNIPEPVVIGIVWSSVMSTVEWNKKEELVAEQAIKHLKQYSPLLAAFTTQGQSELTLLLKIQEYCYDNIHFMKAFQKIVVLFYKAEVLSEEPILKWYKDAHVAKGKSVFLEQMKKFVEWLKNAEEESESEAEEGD
structure (smiles),measurement,setting,value
CN(Cc1cnc2nc(N)nc(N)c2n1)c1ccc(C(=O)NC(CCC(=O)NCCOCCOCCOCCOCCOCCn2cc(CN3CCN(c4ccc(Nc5nc(NC6CCCCC6)c6nc[nH]c6n5)cc4)CC3)nn2)C(=O)O)cc1 (stereo not drawn) [MTX-PEG6-reversine],Recurrence (x/2),MFI2,1 x/2
same,Recurrence (x/2),NQO2; [1],2 x/2
same,Recurrence (x/2),NQO2; [2],1 x/2
same,Recurrence (x/2),YIPF5,1 x/2
same,Recurrence (x/2),NT5C,1 x/2
same,Recurrence (x/2),LMAN1,1 x/2
same,Recurrence (x/2),TMEM9,1 x/2
same,Recurrence (x/2),GAK,1 x/2
same,Recurrence (x/2),DYNC2H1,1 x/2
same,Recurrence (x/2),PPM1L,1 x/2
same,Recurrence (x/2),RPS6KA1,1 x/2
same,Recurrence (x/2),GEMIN5; [1],1 x/2
same,Recurrence (x/2),GEMIN5; [2],1 x/2
same,Recurrence (x/2),IGF1R; [1],2 x/2
same,Recurrence (x/2),IGF1R; [2],2 x/2
same,Recurrence (x/2),MST1R,1 x/2
same,Recurrence (x/2),CAMKV,1 x/2
same,Recurrence (x/2),USP7,1 x/2
same,Recurrence (x/2),FKBP3,1 x/2
same,Recurrence (x/2),MBTPS1,1 x/2
same,Recurrence (x/2),MYO1D,1 x/2
same,Recurrence (x/2),BZW1,1 x/2
same,Recurrence (x/2),TMEM30A,1 x/2
same,Recurrence (x/2),CTNNA2,1 x/2
same,Recurrence (x/2),INSR; [1],2 x/2
same,Recurrence (x/2),INSR; [2],2 x/2
same,Recurrence (x/2),RCL; [1],1 x/2
same,Recurrence (x/2),RCL; [2],1 x/2
same,Recurrence (x/2),TMX1,1 x/2
same,Recurrence (x/2),ZNF827,1 x/2
same,Recurrence (x/2),HTRA3,1 x/2
same,Recurrence (x/2),NEK2,1 x/2
same,Recurrence (x/2),APMAP,1 x/2
